Legend:
Experiment in all cases: viability relative to DMSO control (fraction); higher = less drug effect (more viable cells)
Settings in all cases: 48 h
Palbociclib = compound: CC(=O)c1c(C)c2cnc(Nc3ccc(N4CCNCC4)cn3)nc2n(C2CCCC2)c1=O [Palbociclib]
Procedure, shortened: (§1)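 The cells were primary mononuclear tumour cells, either fresh or cryopreserved, isolated by Ficoll from blood or bone marrow or derived from processed lymph node. Each well of a 384-well plate received 4 × 10^4 cells onto compounds pre-plated at five concentrations, with one well per concentration. The medium was RPMI-1640 with penicillin/streptomycin, L-glutamine and human serum, and plates stood at 37 °C and 5% CO2 for 48 h. Viability is reported as CellTiter-Glo luminescence relative to the median of 16 inner DMSO wells.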

SGC 0946 = compound: CC(C)N(CCCNC(=O)Nc1ccc(C(C)(C)C)cc1)C[C@H]1O[C@@H](n2cc(Br)c3c(N)ncnc32)[C@H](O)[C@@H]1O [SGC 0946]
Procedure, shortened: as §1

Navitoclax = compound: CC1(C)CCC(c2ccc(Cl)cc2)=C(CN2CCN(c3ccc(C(=O)NS(=O)(=O)c4ccc(N[C@H](CCN5CCOCC5)CSc5ccccc5)c(S(=O)(=O)C(F)(F)F)c4)cc3)CC2)C1 [Navitoclax]
Procedure, shortened: as §1

Barasertib = compound: CCN(CCCOc1ccc2c(Nc3cc(CC(=O)Nc4cccc(F)c4)[nH]n3)ncnc2c1)CCOP(=O)(O)O [Barasertib]
Procedure, shortened: as §1

EPZ-6438 = compound: CCN(c1cc(-c2ccc(CN3CCOCC3)cc2)cc(C(=O)NCc2c(C)cc(C)[nH]c2=O)c1C)C1CCOCC1 [EPZ-6438]
Procedure, shortened: as §1

[1] = compound: CCc1ccc(/C=C2/SC(=S)NC2=O)cc1
Procedure, shortened: as §1

Midostaurin hydrate = compound: CO[C@@H]1[C@H](N(C)C(=O)c2ccccc2)C[C@H]2O[C@]1(C)n1c3ccccc3c3c4c(c5c6ccccc6n2c5c31)C(=O)NC4 [Midostaurin hydrate]
Procedure, shortened: as §1

Etoposide = compound: COc1cc([C@@H]2c3cc4c(cc3[C@@H](O[C@@H]3O[C@@H]5CO[C@@H](C)O[C@H]5[C@H](O)[C@H]3O)[C@H]3COC(=O)[C@H]23)OCO4)cc(OC)c1O [Etoposide]
Procedure, shortened: as §1

Tofacitinib = compound: C[C@@H]1CCN(C(=O)CC#N)C[C@@H]1N(C)c1ncnc2[nH]ccc12 [Tofacitinib]
Procedure, shortened: as §1

[2] = compound: C[C@H](NC(=O)CCC(F)(F)F)C(=O)N[C@@H]1C(=O)N(CCO)c2ncccc2-c2ccccc21
Procedure, shortened: as §1

Duvelisib = compound: C[C@H](Nc1ncnc2nc[nH]c12)c1cc2cccc(Cl)c2c(=O)n1-c1ccccc1 [Duvelisib]
Procedure, shortened: as §1

Pomalidomide = compound: Nc1cccc2c1C(=O)N(C1CCC(=O)NC1=O)C2=O [Pomalidomide]
Procedure, shortened: as §1

Selinexor = compound: O=C(/C=C\n1cnc(-c2cc(C(F)(F)F)cc(C(F)(F)F)c2)n1)NNc1cnccn1 [Selinexor]
Procedure, shortened: as §1

Filgotinib = compound: O=C(Nc1nc2cccc(-c3ccc(CN4CCS(=O)(=O)CC4)cc3)n2n1)C1CC1 [Filgotinib]
Procedure, shortened: as §1

Chlorambucil = compound: O=C(O)CCCc1ccc(N(CCCl)CCCl)cc1 [Chlorambucil]
Procedure, shortened: as §1

primary AML patient cells (S017)
viability (Palbociclib; 0.024 µM): 0.996
viability (Palbociclib; 0.12 µM): 0.91
viability (Palbociclib; 0.6 µM): 1.08
viability (Palbociclib; 3 µM): 0.965
viability (Palbociclib; 15 µM): 0.726
viability (SGC 0946; 0.024 µM): 1.11
viability (SGC 0946; 0.12 µM): 0.971
viability (SGC 0946; 0.6 µM): 0.918
viability (SGC 0946; 3 µM): 0.994
viability (SGC 0946; 15 µM): 0.853
viability (Navitoclax; 0.0032 µM): 1.12
viability (Navitoclax; 0.016 µM): 1.05
viability (Navitoclax; 0.08 µM): 1.06
viability (Navitoclax; 0.4 µM): 0.988
viability (Navitoclax; 2 µM): 0.831
viability (Barasertib; 0.0008 µM): 0.983
viability (Barasertib; 0.004 µM): 0.947
viability (Barasertib; 0.02 µM): 0.999
viability (Barasertib; 0.1 µM): 0.958
viability (Barasertib; 0.5 µM): 1.03
viability (EPZ-6438; 0.024 µM): 1.15
viability (EPZ-6438; 0.12 µM): 1.06
viability (EPZ-6438; 0.6 µM): 1.02
viability (EPZ-6438; 3 µM): 1.01
viability (EPZ-6438; 15 µM): 1.05
viability ([1]; 0.024 µM): 0.882
viability ([1]; 0.12 µM): 0.869
viability ([1]; 0.6 µM): 1.02
viability ([1]; 3 µM): 0.95
viability ([1]; 15 µM): 0.948
viability (Midostaurin hydrate; 0.024 µM): 1.12
viability (Midostaurin hydrate; 0.12 µM): 1.06
viability (Midostaurin hydrate; 0.6 µM): 1.18
viability (Midostaurin hydrate; 3 µM): 1.29
viability (Midostaurin hydrate; 15 µM): 0.73
viability (Etoposide; 0.032 µM): 1.08
viability (Etoposide; 0.16 µM): 1.02
viability (Etoposide; 0.8 µM): 0.947
viability (Etoposide; 4 µM): 1.09
viability (Etoposide; 20 µM): 0.888
viability (Tofacitinib; 0.024 µM): 0.98
viability (Tofacitinib; 0.12 µM): 0.959
viability (Tofacitinib; 0.6 µM): 1
viability (Tofacitinib; 3 µM): 0.974
viability (Tofacitinib; 15 µM): 1
viability ([2]; 0.016 µM): 1.13
viability ([2]; 0.08 µM): 1.12
viability ([2]; 0.4 µM): 1.06
viability ([2]; 2 µM): 1.07
viability ([2]; 10 µM): 0.971
viability (Duvelisib; 0.0016 µM): 1.04
viability (Duvelisib; 0.008 µM): 1.09
viability (Duvelisib; 0.04 µM): 0.921
viability (Duvelisib; 0.2 µM): 0.708
viability (Duvelisib; 1 µM): 0.627
viability (Pomalidomide; 0.0032 µM): 0.995
viability (Pomalidomide; 0.016 µM): 1.09
viability (Pomalidomide; 0.08 µM): 1.07
viability (Pomalidomide; 0.4 µM): 1.01
viability (Pomalidomide; 2 µM): 1.03
viability (Selinexor; 0.008 µM): 0.902
viability (Selinexor; 0.04 µM): 0.845
viability (Selinexor; 0.2 µM): 0.795
viability (Selinexor; 1 µM): 0.856
viability (Selinexor; 5 µM): 0.831
viability (Filgotinib; 0.024 µM): 1.01
viability (Filgotinib; 0.12 µM): 0.93
viability (Filgotinib; 0.6 µM): 0.99
viability (Filgotinib; 3 µM): 0.948
viability (Filgotinib; 15 µM): 0.354
viability (Chlorambucil; 0.032 µM): 0.969
viability (Chlorambucil; 0.16 µM): 0.998
viability (Chlorambucil; 0.8 µM): 0.989
viability (Chlorambucil; 4 µM): 0.988
viability (Chlorambucil; 20 µM): 0.955

primary MCL patient cells (S068)
viability (Palbociclib; 0.024 µM): 0.913
viability (Palbociclib; 0.12 µM): 0.842
viability (Palbociclib; 0.6 µM): 0.547
viability (Palbociclib; 3 µM): 0.367
viability (Palbociclib; 15 µM): 0.262
viability (SGC 0946; 0.024 µM): 0.822
viability (SGC 0946; 0.12 µM): 0.893
viability (SGC 0946; 0.6 µM): 0.877
viability (SGC 0946; 3 µM): 0.79
viability (SGC 0946; 15 µM): 0.462
viability (Navitoclax; 0.0032 µM): 1.04
viability (Navitoclax; 0.016 µM): 0.906
viability (Navitoclax; 0.08 µM): 0.642
viability (Navitoclax; 0.4 µM): 0.326
viability (Navitoclax; 2 µM): 0.191
viability (Barasertib; 0.0008 µM): 0.947
viability (Barasertib; 0.004 µM): 0.894
viability (Barasertib; 0.02 µM): 0.846
viability (Barasertib; 0.1 µM): 0.887
viability (Barasertib; 0.5 µM): 0.97
viability (EPZ-6438; 0.024 µM): 0.954
viability (EPZ-6438; 0.12 µM): 1.04
viability (EPZ-6438; 0.6 µM): 0.997
viability (EPZ-6438; 3 µM): 0.918
viability (EPZ-6438; 15 µM): 0.767
viability ([1]; 0.024 µM): 0.624
viability ([1]; 0.12 µM): 0.721
viability ([1]; 0.6 µM): 0.737
viability ([1]; 3 µM): 0.806
viability ([1]; 15 µM): 0.791
viability (Midostaurin hydrate; 0.024 µM): 0.901
viability (Midostaurin hydrate; 0.12 µM): 0.855
viability (Midostaurin hydrate; 0.6 µM): 0.699
viability (Midostaurin hydrate; 3 µM): 0.431
viability (Midostaurin hydrate; 15 µM): 0.24
viability (Etoposide; 0.032 µM): 1.03
viability (Etoposide; 0.16 µM): 0.956
viability (Etoposide; 0.8 µM): 0.952
viability (Etoposide; 4 µM): 0.933
viability (Etoposide; 20 µM): 0.624
viability (Tofacitinib; 0.024 µM): 0.953
viability (Tofacitinib; 0.12 µM): 0.948
viability (Tofacitinib; 0.6 µM): 0.896
viability (Tofacitinib; 3 µM): 0.884
viability (Tofacitinib; 15 µM): 0.757
viability ([2]; 0.016 µM): 1.29
viability ([2]; 0.08 µM): 1.33
viability ([2]; 0.4 µM): 1.24
viability ([2]; 2 µM): 1.33
viability ([2]; 10 µM): 1.3
viability (Duvelisib; 0.0016 µM): 0.69
viability (Duvelisib; 0.008 µM): 0.635
viability (Duvelisib; 0.04 µM): 0.572
viability (Duvelisib; 0.2 µM): 0.585
viability (Duvelisib; 1 µM): 0.493
viability (Pomalidomide; 0.0032 µM): 0.909
viability (Pomalidomide; 0.016 µM): 0.93
viability (Pomalidomide; 0.08 µM): 0.98
viability (Pomalidomide; 0.4 µM): 0.929
viability (Pomalidomide; 2 µM): 0.767
viability (Selinexor; 0.008 µM): 0.862
viability (Selinexor; 0.04 µM): 0.947
viability (Selinexor; 0.2 µM): 1.31
viability (Selinexor; 1 µM): 1.01
viability (Selinexor; 5 µM): 1.12
viability (Filgotinib; 0.024 µM): 0.923
viability (Filgotinib; 0.12 µM): 0.909
viability (Filgotinib; 0.6 µM): 0.956
viability (Filgotinib; 3 µM): 1.13
viability (Filgotinib; 15 µM): 0.614
viability (Chlorambucil; 0.032 µM): 1.02
viability (Chlorambucil; 0.16 µM): 1.03
viability (Chlorambucil; 0.8 µM): 0.941
viability (Chlorambucil; 4 µM): 0.857
viability (Chlorambucil; 20 µM): 0.624

primary AML patient cells (S019)
viability (Palbociclib; 0.024 µM): 0.997
viability (Palbociclib; 0.12 µM): 0.837
viability (Palbociclib; 0.6 µM): 0.925
viability (Palbociclib; 3 µM): 0.635
viability (Palbociclib; 15 µM): 0.286
viability (SGC 0946; 0.024 µM): 1.04
viability (SGC 0946; 0.12 µM): 1.04
viability (SGC 0946; 0.6 µM): 0.918
viability (SGC 0946; 3 µM): 1.01
viability (SGC 0946; 15 µM): 0.652
viability (Navitoclax; 0.0032 µM): 1.04
viability (Navitoclax; 0.016 µM): 1.02
viability (Navitoclax; 0.08 µM): 0.665
viability (Navitoclax; 0.4 µM): 0.257
viability (Navitoclax; 2 µM): 0.153
viability (Barasertib; 0.0008 µM): 0.853
viability (Barasertib; 0.004 µM): 0.832
viability (Barasertib; 0.02 µM): 1.04
viability (Barasertib; 0.1 µM): 0.939
viability (Barasertib; 0.5 µM): 1.07
viability (EPZ-6438; 0.024 µM): 1.03
viability (EPZ-6438; 0.12 µM): 1.06
viability (EPZ-6438; 0.6 µM): 0.992
viability (EPZ-6438; 3 µM): 1.04
viability (EPZ-6438; 15 µM): 0.948
viability ([1]; 0.024 µM): 0.959
viability ([1]; 0.12 µM): 0.973
viability ([1]; 0.6 µM): 1.08
viability ([1]; 3 µM): 1.01
viability ([1]; 15 µM): 0.996
viability (Midostaurin hydrate; 0.024 µM): 1.11
viability (Midostaurin hydrate; 0.12 µM): 0.956
viability (Midostaurin hydrate; 0.6 µM): 1.19
viability (Midostaurin hydrate; 3 µM): 1.27
viability (Midostaurin hydrate; 15 µM): 1.09
viability (Etoposide; 0.032 µM): 1.23
viability (Etoposide; 0.16 µM): 0.9
viability (Etoposide; 0.8 µM): 0.742
viability (Etoposide; 4 µM): 0.876
viability (Etoposide; 20 µM): 0.298
viability (Tofacitinib; 0.024 µM): 1.1
viability (Tofacitinib; 0.12 µM): 1.09
viability (Tofacitinib; 0.6 µM): 1.16
viability (Tofacitinib; 3 µM): 1.13
viability (Tofacitinib; 15 µM): 1
viability ([2]; 0.016 µM): 1.32
viability ([2]; 0.08 µM): 1.33
viability ([2]; 0.4 µM): 1.16
viability ([2]; 2 µM): 1.24
viability ([2]; 10 µM): 1.05
viability (Duvelisib; 0.0016 µM): 1.04
viability (Duvelisib; 0.008 µM): 1.1
viability (Duvelisib; 0.04 µM): 1.1
viability (Duvelisib; 0.2 µM): 1.19
viability (Duvelisib; 1 µM): 0.993
viability (Pomalidomide; 0.0032 µM): 1.03
viability (Pomalidomide; 0.016 µM): 1.21
viability (Pomalidomide; 0.08 µM): 1.08
viability (Pomalidomide; 0.4 µM): 0.963
viability (Pomalidomide; 2 µM): 1.08
viability (Selinexor; 0.008 µM): 0.888
viability (Selinexor; 0.04 µM): 0.843
viability (Selinexor; 0.2 µM): 0.785
viability (Selinexor; 1 µM): 0.774
viability (Selinexor; 5 µM): 0.681
viability (Filgotinib; 0.024 µM): 0.986
viability (Filgotinib; 0.12 µM): 1.01
viability (Filgotinib; 0.6 µM): 0.909
viability (Filgotinib; 3 µM): 0.847
viability (Filgotinib; 15 µM): 0.608
viability (Chlorambucil; 0.032 µM): 0.909
viability (Chlorambucil; 0.16 µM): 0.911
viability (Chlorambucil; 0.8 µM): 0.938
viability (Chlorambucil; 4 µM): 0.9
viability (Chlorambucil; 20 µM): 0.427
